Source: patent publication US20120029068A1, “TRANSDERMAL FLUID” (MALAYSIAN PALM OIL BROARD A/K/A MPOB, priority 2007, published 2012)
Where two headings read alike, the source gives them in different places.

Legend:
[1] = system: prostate cancer cell; settings: comparison between homologues; cited from earlier work
[2] = rats fed 50 mg of α-T3 or α-T, α-T3 vs α-T; cited from earlier work
[3] = system: MCF-7; settings: absence and presence of estradiol and tamoxifen; cited from earlier work
[4] = system: human breast cancer cells; settings: cited from earlier work; for anti-proliferative and pro-apoptotic effects / inhibition of breast cancer cell growth: human breast cancer cells
[5] = system: ZR-75-1 cells; settings: absence and presence of estradiol and tamoxifen; cited from earlier work
[6] = system: IFN-γ; experiment: IFN-γ ELISA on splenocytes of mice immunized with OVA; assay type: in vivo, BALB/c mice; settings: transdermal δ-T3 vs control
Procedure: (§1) The mice were further immunized subcutaneously with ovalbumin (50 μg) adjuvanted in alum. Interferon-gamma (IFN-γ) was measured upon antigen specific stimulation of OVA.
The experimental mice were sacrificed using ether. Spleen was removed aseptically into RPMI complete medium and single cell suspension was made by teasing out the splenocytes from the spleen capsule. Before culture, cells were stained with 0.4% Trypan Blue Stain (GIBCO, Invitrogen Corp, New Zealand) and cell viability count was performed using a haemocytometer. The spleen cell suspension was diluted to give a 5×10^6 cells/ml solution and Concanavalin A (Sigma-Aldrich Inc, St Louis Mo., USA) was added at a final concentration of 25 μg/ml. 200 μl of this suspension was plated on to 96-well flat-bottomed tissue culture plates (Becton Dickinson, USA) and left in a humidified CO2 incubator at 37° C. for 72 hours. At the end of each incubation period, the plate was removed from the incubator and stored at −70° C. The plates were thawed prior to performing ELISA.
The tissue culture plates that were frozen at […] were thawed. […] The supernatant was analysed by ELISA to quantify the amount of IFN-γ and IL-4 produced following the in vitro stimulation with Concanavalin A. ELISA was performed using ELISA kits for mouse IFN-γ and IL-4 (BD, Pharmingen) as recommended by the manufacturers.

[7] = system: natural killer cells (NK); experiment: Single colour flow cytometry with leukocyte marker antibodies, NK cells; assay type: in vivo, BALB/c mice; settings: whole blood, δ-tocotrienol group compared to control
Procedure: as §1
(§2) Fluorescein isothiocyanate (FITC) or Phycoerythrin-labeled antibodies were diluted by adding 20 μl of antibody to 50 μl of Staining Buffer in separate tubes. 100 μl of whole blood from mouse was added to each tube and mixed gently. The samples were then incubated for one hour at room temperature in the dark. After incubation, 2 ml of RBC Lysis Buffer was added into each tube and mixed gently. Samples were then centrifuged at 400 g for 5 minutes at room temperature. A wash step was carried out by adding 2 ml of Staining Buffer and samples were again centrifuged at 400 g for 5 minutes at room temperature. Supernatant was removed and 200 μl Staining Buffer was added into each tube followed by 204 μl of 4% Formalin. Samples were analysed using Flow Cytometer.

[8] = system: Splenocytes; experiment: MTT viability assay of splenocytes; assay type: cell-based, BALB/c mice; settings: splenocytes of treated mice, addition of concanavalin A or OVA
Procedure: Viability of the cells was measured by the MTT assay. In this assay MTT is converted to a blue formazan product by dehydrogenases that are active in living cells. Splenocytes were seeded with concanavalin A or OVA in a 96 well plate in a total volume of 200 μl of medium. MTT (25 μl of 5 mg/ml) was added to each well. After 4 hours, 100 μl of extraction buffer consisting of 20% SDS dissolved in a 50% dimethyl formamide/50% water solution at pH 4.0 was added. The blue colour formed was measured at 590 nm.
The MTT assay uses the principle whereby cell growth or cell death is indicated by the conversion or lack of conversion of the tetrazolium salt to the coloured product, formazan, the concentration of which can be measured spectrophotometrically.

[9] = mouse, in vivo
Procedure: BALB/c mice were divided into 2 groups. Control group only received ethanol the carrier whilst the experimental group was treated with 1 mg of δ-tocotrienols daily for 4 weeks. It was applied on the back to examine subcutaneous absorption.
Female BALB/c mice 3 to 4 weeks old were obtained from the Animal Breeding Unit, Institute for Medical Research (IMR), Kuala Lumpur, Malaysia. […] The control animals were treated with ethanol alone whilst the experimental groups were applied daily with 0.5 ml of a 20 mg/ml concentration to deliver 1 mg of δ-tocotrienol.
The tocopherols and tocotrienols were analysed by HPLC. The system used was a Shimadzu LC-10AT HPLC coupled with a Shimadzu Model RF-10AXL fluorescence spectrophotometer, Shimadzu Class VP data acquisition software, and silica column (YMC A-012/150×6 mm I.D, 5 μm). The eluting solvent was hexane/isopropyl alcohol (99.5/0.5 v/v) at a flow rate of 2.0 ml/min. The detector was set at excitation wavelength of 295 nm and emission wavelength of 325 nm. 500 mg adipose tissue was homogenized with 4:1:1 mixture of hexane:ethanol and 0.9% sodium chloride at 10000 rpm for 5 minutes. The homogenate was then centrifuged at 2000 rpm for 5 minutes. The resulting supernatant was filtered and evaporated using a rotary evaporator. A known amount of lipid sample was dissolved in a 10 ml volumetric flask using the eluting solvent and 10 μl of the solution was injected into the HPLC system. A standard solution of a mixture of α, γ, and δ-tocotrienols was also injected accordingly. Quantification of the major components of vitamin E was carried out by comparing the peak areas of the components with those of the standards.

[10] = system: B-lymphocytes; experiment: Single colour flow cytometry with leukocyte marker antibodies, B-lymphocytes; assay type: in vivo, BALB/c mice; settings: whole blood, δ-tocotrienol group compared to control
Procedure: as §1, §2

[11] = system: MDA-MB-231 cells; settings: cited from earlier work
[12] = system: MCF-7 cells; settings: α-T combined with tamoxifen; cited from earlier work

Cc1c(O)cc2c(c1C)O[C@](C)(CCC[C@H](C)CCC[C@H](C)CCCC(C)C)CC2 [γ-T, γ-tocopherol, reference compound]
effect on prostate cancer cell growth [1]: much stronger inhibitory effect

CC(C)=CCC/C(C)=C/CC/C(C)=C/CC[C@]1(C)CCc2c(C)c(O)c(C)c(C)c2O1 [α-T3, α-tocotrienol]
concentration in adipose tissue and skin [2]: significantly higher
proliferation of MCF-7 [3]: inhibited proliferation
anti-proliferative and pro-apoptotic effects / inhibition of breast cancer cell growth [4]: potent anti-proliferative and pro-apoptotic effects
proliferation of ZR-75-1 cells [5]: inhibited proliferation

CC(C)=CCC/C(C)=C/CC/C(C)=C/CC[C@]1(C)CCc2cc(O)cc(C)c2O1 [δ-T3, δ-tocotrienol]
proliferation of MCF-7 [3]: inhibited proliferation
IFN-γ in splenocytes [6]: significantly higher
IFN-γ in splenocytes ([6]; listed as δ-tocotrienols): significant increase
natural killer cells [7]: significantly increased
natural killer cells ([7]; listed as δ-tocotrienols): increase
splenocyte growth (MTT OD reading) [8]: grew normally
synergistic efficacy with Tamoxifen ([4]; breast cancer): highest synergistic efficacy
anti-proliferative and pro-apoptotic effects / inhibition of breast cancer cell growth [4]: potent anti-proliferative and pro-apoptotic effects
anti-proliferative and pro-apoptotic effects / inhibition of breast cancer cell growth ([4]; listed as δ-tocotrienol): most effective inhibitor
changes in tocotrienol levels in blood, spleen and liver [9]: only seen at week 4
concentration in adipose and subcutaneous fat tissue at week 3 [9]: drop in concentration
time of optimum concentration in breast and abdominal adipose and subcutaneous fat tissue [9]: 2 week
δ-T3 in breast and abdominal adipose and subcutaneous fat tissue [9]: significant increases
proliferation of ZR-75-1 cells [5]: inhibited proliferation
B-lymphocytes [10]: significantly increased
B-lymphocytes ([10]; listed as δ-tocotrienols): increase

CC(C)=CCC/C(C)=C/CC/C(C)=C/CC[C@]1(C)CCc2cc(O)c(C)c(C)c2O1 [γ-T3, γ-tocotrienol]
effect on prostate cancer cell growth [1]: greater anti-proliferative effects than γ-T
proliferation of MCF-7 [3]: inhibited proliferation
anti-proliferative and pro-apoptotic effects / inhibition of breast cancer cell growth [4]: potent anti-proliferative and pro-apoptotic effects
proliferation of ZR-75-1 cells [5]: inhibited proliferation

Cc1c(C)c2c(c(C)c1O)CC[C@@](C)(CCC[C@H](C)CCC[C@H](C)CCCC(C)C)O2 [α-T, α-tocopherol]
anti-proliferative and pro-apoptotic effects / inhibition of breast cancer cell growth [4]: no effect
effect on growth inhibitory effects of tamoxifen [11]: completely blocked
increase of the IC50 for tamoxifen [12]: more than 1000 fold
